The values below come from ChEMBL document CHEMBL5465560, “Selectivity Literature for EUbOPEN Chemogenomic Library” (2024).

The target of series [1] is Ribosomal protein S6 kinase alpha-2 (Homo sapiens) (UniProt Q15349). Briefly: Selectivity interaction (SelectScreen profiling (Invitrogen)) EUB0000607a RPS6KA2. The conditions noted are these: at 2 µM.
For series [2], the target named is T1, Serine/threonine-protein kinase Sgk3 (Homo sapiens) (UniProt Q96BR1).
T1 sequence (whole entry): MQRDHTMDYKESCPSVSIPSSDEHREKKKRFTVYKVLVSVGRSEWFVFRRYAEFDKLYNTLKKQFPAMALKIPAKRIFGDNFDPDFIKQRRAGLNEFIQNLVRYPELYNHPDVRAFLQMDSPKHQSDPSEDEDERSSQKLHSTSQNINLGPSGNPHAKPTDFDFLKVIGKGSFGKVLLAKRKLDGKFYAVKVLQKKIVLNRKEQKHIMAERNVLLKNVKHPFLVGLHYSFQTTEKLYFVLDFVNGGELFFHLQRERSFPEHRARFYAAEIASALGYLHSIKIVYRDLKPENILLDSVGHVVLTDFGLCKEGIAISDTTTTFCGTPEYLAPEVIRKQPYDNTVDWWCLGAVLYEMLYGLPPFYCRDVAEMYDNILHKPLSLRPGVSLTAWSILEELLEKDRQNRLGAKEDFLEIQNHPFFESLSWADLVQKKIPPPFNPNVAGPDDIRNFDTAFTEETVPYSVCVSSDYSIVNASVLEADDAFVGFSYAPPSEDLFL
The note with it: at 10 µM.

The target in series [3] is T2, Histone-arginine methyltransferase CARM1 (Homo sapiens, UniProt Q86X55).
T2 sequence (Q86X55 whole entry): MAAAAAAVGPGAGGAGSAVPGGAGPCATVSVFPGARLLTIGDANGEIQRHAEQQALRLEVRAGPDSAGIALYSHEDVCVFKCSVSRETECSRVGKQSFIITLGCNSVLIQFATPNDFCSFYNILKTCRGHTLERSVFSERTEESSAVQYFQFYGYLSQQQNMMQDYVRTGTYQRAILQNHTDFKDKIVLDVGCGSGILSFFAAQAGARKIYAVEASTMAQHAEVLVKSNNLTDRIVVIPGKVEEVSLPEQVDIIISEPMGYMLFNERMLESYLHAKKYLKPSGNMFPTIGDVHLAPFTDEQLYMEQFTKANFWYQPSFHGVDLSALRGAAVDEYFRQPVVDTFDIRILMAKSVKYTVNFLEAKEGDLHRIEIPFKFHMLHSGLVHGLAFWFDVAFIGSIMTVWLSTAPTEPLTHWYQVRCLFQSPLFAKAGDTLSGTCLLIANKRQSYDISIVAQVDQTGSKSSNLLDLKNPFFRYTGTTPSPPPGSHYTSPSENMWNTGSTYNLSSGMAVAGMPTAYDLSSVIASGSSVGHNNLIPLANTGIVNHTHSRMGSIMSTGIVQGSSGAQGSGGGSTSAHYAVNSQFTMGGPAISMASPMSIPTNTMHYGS
Briefly: Selectivity interaction (Western Blot (dimethylation of BAF155 (BAF155me2a/BAF155) in U266B1 cells)) EUB0000255b CARM1. Type of series: cell-based, U-266. A general note: A western blot detects proteins with antibodies after separation by electrophoresis.

In series [4] the target is T3, Inhibitor of nuclear factor kappa-B kinase subunit epsilon (Homo sapiens) (UniProt Q14164).
T3 sequence (whole entry): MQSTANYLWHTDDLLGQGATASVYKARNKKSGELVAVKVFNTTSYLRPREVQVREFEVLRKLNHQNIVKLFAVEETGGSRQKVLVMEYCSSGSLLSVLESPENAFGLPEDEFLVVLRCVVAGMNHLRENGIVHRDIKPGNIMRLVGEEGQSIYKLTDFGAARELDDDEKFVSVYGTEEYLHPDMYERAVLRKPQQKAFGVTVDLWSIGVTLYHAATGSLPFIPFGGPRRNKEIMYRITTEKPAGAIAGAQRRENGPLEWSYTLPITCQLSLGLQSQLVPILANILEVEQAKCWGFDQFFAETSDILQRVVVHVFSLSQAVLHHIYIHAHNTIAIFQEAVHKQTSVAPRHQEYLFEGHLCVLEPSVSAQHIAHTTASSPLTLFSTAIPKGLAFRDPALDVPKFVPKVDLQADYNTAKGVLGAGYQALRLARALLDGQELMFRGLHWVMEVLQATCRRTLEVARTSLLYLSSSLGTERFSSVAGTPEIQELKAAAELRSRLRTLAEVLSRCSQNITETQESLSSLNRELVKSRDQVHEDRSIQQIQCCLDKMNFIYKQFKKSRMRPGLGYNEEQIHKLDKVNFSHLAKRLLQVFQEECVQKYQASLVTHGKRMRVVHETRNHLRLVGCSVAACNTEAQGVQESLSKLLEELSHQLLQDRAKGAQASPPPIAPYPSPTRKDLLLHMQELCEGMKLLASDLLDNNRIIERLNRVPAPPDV
Briefly: Selectivity interaction (ActivX KiNativ screen (kinase selectivity in THP-1 cell lysates)) EUB0000639a IKBKE. The class given is subcellular. The note with it: lysate, at 0.04 µM.

Another series addresses hERG (KCNH2) (Homo sapiens, UniProt Q12809). Put plainly: Selectivity interaction (Panel of kinases, GPCRs, ion channels and transporters (enzymatic assay)) EUB0000223bCl KCNH2.
Series [5] concerns the target T4, Tyrosine-protein kinase Tec (Homo sapiens) (UniProt P42680).
T4 sequence (whole entry): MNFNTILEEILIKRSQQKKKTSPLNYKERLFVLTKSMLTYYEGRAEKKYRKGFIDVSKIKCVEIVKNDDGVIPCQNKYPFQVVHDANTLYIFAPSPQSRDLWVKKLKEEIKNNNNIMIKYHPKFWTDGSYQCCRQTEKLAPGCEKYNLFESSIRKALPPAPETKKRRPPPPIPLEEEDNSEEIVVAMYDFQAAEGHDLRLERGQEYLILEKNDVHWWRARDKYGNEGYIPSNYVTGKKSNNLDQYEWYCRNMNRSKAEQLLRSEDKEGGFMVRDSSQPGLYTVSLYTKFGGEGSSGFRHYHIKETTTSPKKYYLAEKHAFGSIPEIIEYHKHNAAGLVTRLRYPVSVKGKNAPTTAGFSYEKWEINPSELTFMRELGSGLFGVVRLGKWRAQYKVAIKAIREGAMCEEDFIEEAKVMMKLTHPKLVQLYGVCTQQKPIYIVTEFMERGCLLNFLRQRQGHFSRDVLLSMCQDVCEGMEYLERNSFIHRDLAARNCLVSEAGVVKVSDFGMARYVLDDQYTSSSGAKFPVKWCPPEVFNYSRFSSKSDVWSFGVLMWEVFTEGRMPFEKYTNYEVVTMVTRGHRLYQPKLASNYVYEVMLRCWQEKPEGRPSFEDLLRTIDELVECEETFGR
Briefly: Selectivity interaction (KinomeScan (DiscoverX)) EUB0000618a TEC. The conditions noted are these: at 10 µM.

Ribosomal protein S6 kinase alpha-2 (Homo sapiens), sequence (Q15349 whole entry): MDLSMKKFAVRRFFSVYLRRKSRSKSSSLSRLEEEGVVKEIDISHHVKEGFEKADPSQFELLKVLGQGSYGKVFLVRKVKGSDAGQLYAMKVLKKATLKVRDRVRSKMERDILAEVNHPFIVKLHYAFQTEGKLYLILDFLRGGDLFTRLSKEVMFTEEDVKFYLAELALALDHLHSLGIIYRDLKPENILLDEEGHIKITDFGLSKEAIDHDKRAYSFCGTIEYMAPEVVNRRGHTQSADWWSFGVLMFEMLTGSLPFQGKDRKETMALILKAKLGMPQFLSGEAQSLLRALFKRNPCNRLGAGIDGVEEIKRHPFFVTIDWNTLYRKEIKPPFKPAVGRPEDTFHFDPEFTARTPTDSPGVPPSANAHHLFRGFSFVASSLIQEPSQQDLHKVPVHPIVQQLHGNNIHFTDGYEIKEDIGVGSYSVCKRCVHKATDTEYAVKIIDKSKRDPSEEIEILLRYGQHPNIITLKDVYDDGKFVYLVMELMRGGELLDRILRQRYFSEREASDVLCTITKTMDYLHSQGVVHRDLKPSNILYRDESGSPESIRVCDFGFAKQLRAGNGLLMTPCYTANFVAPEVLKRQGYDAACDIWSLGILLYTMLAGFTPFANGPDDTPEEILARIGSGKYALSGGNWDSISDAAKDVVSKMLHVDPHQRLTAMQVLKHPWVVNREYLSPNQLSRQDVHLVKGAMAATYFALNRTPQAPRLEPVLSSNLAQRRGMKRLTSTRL
hERG (KCNH2), sequence (Q12809 whole entry): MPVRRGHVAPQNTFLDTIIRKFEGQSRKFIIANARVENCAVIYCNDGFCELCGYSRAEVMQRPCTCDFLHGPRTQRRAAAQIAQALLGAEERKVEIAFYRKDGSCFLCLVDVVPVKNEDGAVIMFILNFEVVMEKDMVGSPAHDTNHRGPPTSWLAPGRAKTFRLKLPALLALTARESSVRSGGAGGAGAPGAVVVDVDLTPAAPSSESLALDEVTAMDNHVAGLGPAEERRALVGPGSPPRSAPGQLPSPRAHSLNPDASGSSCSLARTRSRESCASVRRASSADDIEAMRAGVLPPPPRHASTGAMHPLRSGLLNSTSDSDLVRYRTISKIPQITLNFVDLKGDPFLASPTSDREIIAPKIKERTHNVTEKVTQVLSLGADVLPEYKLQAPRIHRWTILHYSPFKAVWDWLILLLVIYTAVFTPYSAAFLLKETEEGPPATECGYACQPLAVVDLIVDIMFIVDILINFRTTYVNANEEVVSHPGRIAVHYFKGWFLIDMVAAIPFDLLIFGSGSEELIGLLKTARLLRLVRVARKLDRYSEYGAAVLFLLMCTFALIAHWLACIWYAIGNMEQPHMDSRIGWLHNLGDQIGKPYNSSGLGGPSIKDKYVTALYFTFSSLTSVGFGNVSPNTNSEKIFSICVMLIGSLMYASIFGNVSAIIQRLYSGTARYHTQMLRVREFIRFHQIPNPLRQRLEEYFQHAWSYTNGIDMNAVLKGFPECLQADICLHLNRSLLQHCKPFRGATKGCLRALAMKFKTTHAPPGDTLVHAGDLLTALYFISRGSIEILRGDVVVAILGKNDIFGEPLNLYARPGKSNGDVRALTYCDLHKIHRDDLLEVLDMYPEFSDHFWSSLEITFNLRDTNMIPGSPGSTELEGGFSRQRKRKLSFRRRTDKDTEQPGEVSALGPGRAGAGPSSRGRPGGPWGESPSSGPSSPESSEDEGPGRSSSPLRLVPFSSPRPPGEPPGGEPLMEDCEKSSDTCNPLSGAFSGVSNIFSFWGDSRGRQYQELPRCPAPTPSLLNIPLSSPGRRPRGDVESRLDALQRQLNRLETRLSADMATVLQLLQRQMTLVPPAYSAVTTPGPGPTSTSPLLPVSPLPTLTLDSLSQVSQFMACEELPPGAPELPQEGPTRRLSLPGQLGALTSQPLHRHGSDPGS

As for `CNC(=O)Nc1ccc(-c2nc(N3CC4CCC(C3)O4)c3cnn(C4CCC5(CC4)OCCO5)c3n2)cc1`, in series [1], the % of inhibition was -1%.
In turn, `Cc1cc([C@@H](C)Nc2ccccc2C(=O)O)c2nc(N3CCOCC3)cc(=O)n2c1` [AZD-6482] returned a % of control in series [2] of 86%.
For the molecule `COCCN1CCC(c2cc(CN(C)C(=O)c3cccc(Oc4ccccc4)c3)ccn2)CC1`, in series [3], the IC50 (usually the concentration needed to halve the response being measured) is greater than 0.003 µM.
Take `CC[C@@H]1[C@H](F)C(=O)N[C@@H]1COc1nccc2cc(C(N)=O)c(OC)cc12` [ZIMLOVISERTIB]: in series [4], the % of inhibition was -22.2%.
Molecule `COc1cc(C(=O)N2CC[C@@H](O)[C@@H](N)C2)cc2nc(-c3cc4ccccc4n3CC3CC3)n(C)c12` gave an XC50 at hERG (KCNH2) of 31.6 µM.
For the molecule `O[C@H]1CC[C@H](Nc2ncc3nc(Nc4c(F)cc(F)cc4F)n([C@H]4CCOC4)c3n2)CC1`, in series [5], the % of control turned out to be 100%.
